Results reported in patent US9359352B2, “Substituted benzimidazoles as PI3 kinase inhibitors” (Intellikine LLC, priority 2010, dated 2016).
Where two headings read alike, the source gives them in different places.

How the values were obtained:
Assay type in all cases: biochemical
PI3K γ = target: T1, PI3K γ (Homo sapiens, UniProt P48736); assay: PI 3-Kinase HTRF inhibition assay, PI3K γ; details: in vitro
T1 construct: purchased Upstate

PI3K δ = target: T2, PI3K δ (Homo sapiens, UniProt O00329); assay: PI 3-Kinase HTRF inhibition assay, PI3K δ
T2 construct: purchased Upstate
T2 sequence (O00329 whole entry): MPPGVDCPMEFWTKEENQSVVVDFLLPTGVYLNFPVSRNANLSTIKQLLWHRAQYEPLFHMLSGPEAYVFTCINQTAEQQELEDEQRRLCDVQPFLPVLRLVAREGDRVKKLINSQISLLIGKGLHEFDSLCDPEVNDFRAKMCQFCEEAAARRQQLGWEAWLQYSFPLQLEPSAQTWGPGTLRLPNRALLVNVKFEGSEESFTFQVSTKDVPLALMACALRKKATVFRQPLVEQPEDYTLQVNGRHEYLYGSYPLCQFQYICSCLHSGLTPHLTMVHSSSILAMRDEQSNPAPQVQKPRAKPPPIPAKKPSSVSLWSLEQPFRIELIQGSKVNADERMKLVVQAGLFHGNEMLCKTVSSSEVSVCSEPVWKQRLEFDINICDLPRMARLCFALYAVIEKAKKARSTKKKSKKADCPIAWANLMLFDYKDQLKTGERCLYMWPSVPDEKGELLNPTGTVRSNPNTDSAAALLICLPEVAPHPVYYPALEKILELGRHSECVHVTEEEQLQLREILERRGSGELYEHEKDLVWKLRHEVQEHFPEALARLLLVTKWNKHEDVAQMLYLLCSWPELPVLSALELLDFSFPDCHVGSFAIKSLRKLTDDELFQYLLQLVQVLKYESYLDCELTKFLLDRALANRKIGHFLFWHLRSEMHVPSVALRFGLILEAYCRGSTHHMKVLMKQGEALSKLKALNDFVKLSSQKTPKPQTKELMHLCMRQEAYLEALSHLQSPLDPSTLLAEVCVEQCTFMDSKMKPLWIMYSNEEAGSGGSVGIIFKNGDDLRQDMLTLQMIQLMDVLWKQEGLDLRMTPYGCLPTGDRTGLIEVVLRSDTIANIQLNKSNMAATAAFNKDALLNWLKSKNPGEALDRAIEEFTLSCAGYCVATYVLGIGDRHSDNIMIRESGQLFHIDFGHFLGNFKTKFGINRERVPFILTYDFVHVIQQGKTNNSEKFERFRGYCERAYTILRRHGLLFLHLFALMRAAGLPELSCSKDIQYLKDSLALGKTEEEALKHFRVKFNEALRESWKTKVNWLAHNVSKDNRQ
T2 sequence (P27986 whole entry partner): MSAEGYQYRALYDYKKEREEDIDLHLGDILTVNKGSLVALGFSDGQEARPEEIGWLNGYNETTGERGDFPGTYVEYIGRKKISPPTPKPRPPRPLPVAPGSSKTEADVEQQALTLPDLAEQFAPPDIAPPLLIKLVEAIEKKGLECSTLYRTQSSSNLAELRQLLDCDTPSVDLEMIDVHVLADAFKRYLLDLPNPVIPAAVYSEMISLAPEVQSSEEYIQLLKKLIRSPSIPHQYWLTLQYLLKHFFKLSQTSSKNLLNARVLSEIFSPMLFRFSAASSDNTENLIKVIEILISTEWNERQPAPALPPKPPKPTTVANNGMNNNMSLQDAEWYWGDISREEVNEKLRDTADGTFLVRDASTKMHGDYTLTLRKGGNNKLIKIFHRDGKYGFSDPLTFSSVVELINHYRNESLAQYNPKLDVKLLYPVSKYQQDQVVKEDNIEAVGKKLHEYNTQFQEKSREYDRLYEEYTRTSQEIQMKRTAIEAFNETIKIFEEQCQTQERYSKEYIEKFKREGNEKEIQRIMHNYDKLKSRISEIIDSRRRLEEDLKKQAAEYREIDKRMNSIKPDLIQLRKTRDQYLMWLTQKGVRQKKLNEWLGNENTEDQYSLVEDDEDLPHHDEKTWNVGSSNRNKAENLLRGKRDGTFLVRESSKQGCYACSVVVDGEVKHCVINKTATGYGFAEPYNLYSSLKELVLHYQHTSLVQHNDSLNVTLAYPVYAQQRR
Description: (§1) Commercial kits or systems for assaying PI3-K activities are available. The commercially available kits or systems can be used to screen for inhibitors and/or agonists of PI3-Ks including but not limited to PI 3-Kinase α, β, δ, and γ. An exemplary system is PI 3-Kinase (human) HTRF™ Assay from Upstate. […] Briefly, the assay is a time resolved FRET assay that indirectly measures PIP3 product formed by the activity of a PI3-K. The kinase reaction is performed in a microtitre plate (e.g., a 384 well microtitre plate). The total reaction volume is approximately 20 ul per well. In the first step, each well receives 2 ul of test compound in 20% dimethylsulphoxide resulting in a 2% DMSO final concentration. Next, approximately 14.5 ul of a kinase/PIP2 mixture (diluted in 1× reaction buffer) is added per well for a final concentration of 0.25-0.3 ug/ml kinase and 10 μM PIP2. The plate is scaled and incubated for 15 minutes at room temperature. To start the reaction, 3.5 ul of ATP (diluted in 1× reaction buffer) is added per well for a final concentration of 10 μM ATP. The plate is sealed and incubated for 1 hour at room temperature. The reaction is stopped by adding 5 ul of Stop Solution per well and then 5 ul of Detection Mix is added per well. The plate is sealed, incubated for 1 hour at room temperature, and then read on an appropriate plate reader. Data is analyzed and IC50s are generated using GraphPad Prism 5. For PI3K α, β, δ, and γ, the nM concentration of inhibitor to reach IC50 is provided. […] Similar assays, and others known in the art, can be used to measure the percent inhibition of other kinases, including but not limited to PI3K class II kinases, phosphoinositide 4 kinases (PI4K), and phosphoinositide 5 kinases (PI5K).

PI3K α = target: T3, PI3K α (Homo sapiens, UniProt P42336); assay: PI 3-Kinase HTRF inhibition assay, PI3K α
T3 construct: purchased Upstate
T3 sequence (P42336 whole entry): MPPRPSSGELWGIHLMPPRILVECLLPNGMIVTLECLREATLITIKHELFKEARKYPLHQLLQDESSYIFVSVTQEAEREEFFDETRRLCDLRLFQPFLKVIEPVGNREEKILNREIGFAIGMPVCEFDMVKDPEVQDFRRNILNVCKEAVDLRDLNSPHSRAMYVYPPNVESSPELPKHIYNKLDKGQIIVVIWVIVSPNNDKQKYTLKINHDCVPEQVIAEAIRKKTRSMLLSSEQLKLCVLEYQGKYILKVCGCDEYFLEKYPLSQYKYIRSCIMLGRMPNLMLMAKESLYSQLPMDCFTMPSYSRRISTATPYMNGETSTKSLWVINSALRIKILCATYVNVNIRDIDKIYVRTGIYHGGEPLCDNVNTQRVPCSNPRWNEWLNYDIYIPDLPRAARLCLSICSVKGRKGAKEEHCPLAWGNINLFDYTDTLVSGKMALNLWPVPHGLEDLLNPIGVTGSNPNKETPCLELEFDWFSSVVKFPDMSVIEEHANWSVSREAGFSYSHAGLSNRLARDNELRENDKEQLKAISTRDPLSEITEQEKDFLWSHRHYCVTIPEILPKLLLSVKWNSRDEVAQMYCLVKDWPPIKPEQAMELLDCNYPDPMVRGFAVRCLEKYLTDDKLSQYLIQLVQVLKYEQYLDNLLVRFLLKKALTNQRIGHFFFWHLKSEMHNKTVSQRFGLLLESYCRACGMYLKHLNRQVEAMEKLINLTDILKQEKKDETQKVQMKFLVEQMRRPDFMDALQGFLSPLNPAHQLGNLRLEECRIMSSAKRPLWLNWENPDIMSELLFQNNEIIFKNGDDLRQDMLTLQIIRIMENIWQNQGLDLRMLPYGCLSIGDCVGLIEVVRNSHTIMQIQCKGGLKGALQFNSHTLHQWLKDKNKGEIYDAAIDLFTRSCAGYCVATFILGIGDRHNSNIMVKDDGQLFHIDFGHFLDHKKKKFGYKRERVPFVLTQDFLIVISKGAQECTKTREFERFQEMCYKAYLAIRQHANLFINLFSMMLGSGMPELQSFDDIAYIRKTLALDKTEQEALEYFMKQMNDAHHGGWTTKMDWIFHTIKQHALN
T3 sequence (P27986 whole entry partner): as the sequence (P27986 whole entry partner) above
Description: as §1

PI3K β = target: T4, PI3K β (Homo sapiens, UniProt P42338); assay: PI 3-Kinase HTRF inhibition assay, PI3K β; details: in vitro
T4 construct: purchased Upstate
T4 sequence (P42338 whole entry): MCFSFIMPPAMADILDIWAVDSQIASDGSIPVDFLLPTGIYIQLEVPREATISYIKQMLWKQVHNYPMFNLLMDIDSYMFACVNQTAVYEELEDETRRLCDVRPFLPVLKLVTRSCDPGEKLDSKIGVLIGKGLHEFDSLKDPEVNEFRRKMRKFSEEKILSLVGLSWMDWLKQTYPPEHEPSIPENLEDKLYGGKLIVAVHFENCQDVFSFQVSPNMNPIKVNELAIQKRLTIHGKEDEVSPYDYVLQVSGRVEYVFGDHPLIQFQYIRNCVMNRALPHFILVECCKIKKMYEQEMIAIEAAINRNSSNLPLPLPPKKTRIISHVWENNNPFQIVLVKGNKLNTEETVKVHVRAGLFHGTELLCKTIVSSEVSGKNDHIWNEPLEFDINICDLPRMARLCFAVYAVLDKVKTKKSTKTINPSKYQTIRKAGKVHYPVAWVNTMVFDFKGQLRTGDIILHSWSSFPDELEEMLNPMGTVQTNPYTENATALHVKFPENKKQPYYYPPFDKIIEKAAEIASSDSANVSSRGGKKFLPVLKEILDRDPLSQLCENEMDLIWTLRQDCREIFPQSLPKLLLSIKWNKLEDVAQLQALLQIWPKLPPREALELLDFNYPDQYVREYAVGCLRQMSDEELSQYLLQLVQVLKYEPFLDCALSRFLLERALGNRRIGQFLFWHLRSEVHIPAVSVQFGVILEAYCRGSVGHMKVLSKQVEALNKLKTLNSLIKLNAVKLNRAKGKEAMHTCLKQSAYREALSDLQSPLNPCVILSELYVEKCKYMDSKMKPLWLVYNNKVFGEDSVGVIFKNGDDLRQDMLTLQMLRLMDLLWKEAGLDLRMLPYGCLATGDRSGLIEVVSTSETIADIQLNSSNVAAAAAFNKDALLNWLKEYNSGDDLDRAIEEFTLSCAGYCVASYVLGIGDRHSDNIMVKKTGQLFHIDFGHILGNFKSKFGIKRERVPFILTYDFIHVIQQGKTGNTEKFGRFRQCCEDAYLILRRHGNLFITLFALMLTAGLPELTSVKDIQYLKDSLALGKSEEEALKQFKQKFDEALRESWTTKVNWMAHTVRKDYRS
T4 sequence (P27986 whole entry partner): as the sequence (P27986 whole entry partner) above
Description: as §1

mTOR C = target: T5, mTOR C (Homo sapiens, UniProt P42345); assay: mTOR kinase inhibition assay (mTORC IC50); details: in vitro
T5 construct: purchased Invitrogen
Description: The cross-activity or lack thereof of one or more compounds of the present invention against mTor can be measured according to any procedures known in the art or methods disclosed below. The compounds described herein can be tested against recombinant mTOR (Invitrogen) in an assay containing 50 mM HEPES, pH 7.5, 1 mM EGTA, 10 mM MgCl2, 2.5 mM, 0.01% Tween, 10 μM ATP (2.5 μCi of […]), and 3 μg/mL BSA. Rat recombinant PHAS-1/4EBP1 (Calbiochem; 2 mg/mL) is used as a substrate. Reactions are terminated by spotting onto nitrocellulose, which is washed with 1M NaCl/1% phosphoric acid (approximately 6 times, 5-10 minutes each). Sheets are dried and the transferred radioactivity quantitated by phosphorimaging.
Other kits or systems for assaying mTOR activity are commercially available. For instance, one can use Invitrogen's LanthaScreen™ Kinase assay to test the inhibitors of mTOR disclosed herein. This assay is a time resolved FRET platform that measures the phosphorylation of GFP labeled 4EBP1 by mTOR kinase. The kinase reaction is performed in a white 384 well microtitre plate. The total reaction volume is 20 ul per well and the reaction buffer composition is 50 mM HEPES pH7.5, 0.01% Polysorbate 20, 1 mM EGTA, 10 mM MnCl2, and 2 mM DTT. In the first step, each well receives 2 ul of test compound in 20% dimethylsulphoxide resulting in a 2% DMSO final concentration. Next, 8 ul of mTOR diluted in reaction buffer is added per well for a 60 ng/ml final concentration. To start the reaction, 10 ul of an ATP/GFP-4EBP1 mixture (diluted in reaction buffer) is added per well for a final concentration of 10 μM ATP and 0.5 μM GFP-4EBP1. The plate is sealed and incubated for 1 hour at room temperature. The reaction is stopped by adding 10 ul per well of a Tb-anti-pT46 4EBP1 antibody/EDTA mixture (diluted in TR-FRET buffer) for a final concentration of 1.3 nM antibody and 6.7 mM EDTA. The plate is sealed, incubated for 1 hour at room temperature, and then read on a plate reader set up for LanthaScreen™ TR-FRET. Data is analyzed and IC50s are generated using GraphPad Prism 5.

[1] = in vitro, read-out: PI3K δ IC50
[2] = in vitro, read-out: PI3K α IC50

T1 sequence (P48736 whole entry): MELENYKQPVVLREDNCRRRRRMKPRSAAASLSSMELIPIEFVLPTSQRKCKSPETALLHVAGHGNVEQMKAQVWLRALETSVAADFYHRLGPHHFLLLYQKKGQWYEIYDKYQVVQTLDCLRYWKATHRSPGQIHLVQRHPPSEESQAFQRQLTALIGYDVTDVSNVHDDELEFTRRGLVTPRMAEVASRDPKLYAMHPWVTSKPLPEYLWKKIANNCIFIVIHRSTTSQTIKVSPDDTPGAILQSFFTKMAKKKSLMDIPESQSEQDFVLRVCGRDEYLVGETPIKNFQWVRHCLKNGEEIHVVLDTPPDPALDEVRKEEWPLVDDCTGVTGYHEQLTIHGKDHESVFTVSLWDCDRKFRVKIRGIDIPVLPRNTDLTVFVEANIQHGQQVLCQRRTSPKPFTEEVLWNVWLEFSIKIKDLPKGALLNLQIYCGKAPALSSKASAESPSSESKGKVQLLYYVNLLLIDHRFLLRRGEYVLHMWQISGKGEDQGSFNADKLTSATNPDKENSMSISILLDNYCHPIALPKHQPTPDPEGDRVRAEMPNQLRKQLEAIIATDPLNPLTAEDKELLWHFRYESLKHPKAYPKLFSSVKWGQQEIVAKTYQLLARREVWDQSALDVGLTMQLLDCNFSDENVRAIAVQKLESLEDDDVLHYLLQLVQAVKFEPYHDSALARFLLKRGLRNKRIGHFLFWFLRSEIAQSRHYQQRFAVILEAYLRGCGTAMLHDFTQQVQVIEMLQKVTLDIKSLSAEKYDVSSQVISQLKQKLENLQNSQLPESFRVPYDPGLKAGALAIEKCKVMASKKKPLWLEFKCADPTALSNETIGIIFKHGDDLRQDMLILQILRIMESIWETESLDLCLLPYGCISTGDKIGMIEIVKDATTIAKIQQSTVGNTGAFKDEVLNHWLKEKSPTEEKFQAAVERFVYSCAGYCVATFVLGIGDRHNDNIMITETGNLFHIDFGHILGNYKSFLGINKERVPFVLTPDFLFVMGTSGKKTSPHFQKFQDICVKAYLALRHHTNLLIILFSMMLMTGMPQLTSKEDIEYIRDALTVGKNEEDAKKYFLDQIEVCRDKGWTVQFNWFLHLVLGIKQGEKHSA

Structure (SMILES)	IC50 (PI3K γ)	IC50 (PI3K δ; [1])	IC50 (PI3K α; [2])	IC50 (PI3K β)	IC50 (mTOR C)	IC50 (PI3K δ)	IC50 (PI3K α)
Nc1nc2cc(-c3ccc4ncc(N5C6CCC5COC6)nc4n3)ccc2o1 [Compound 19]	< 0.1 µM	> 10 µM	< 0.1 µM	> 10 µM	> 10 µM	–	–
CN1CCN(C2CN(c3cnc4ccc(-c5ccc6oc(N)nc6c5)nc4c3)C2)CC1=O [Compound 64]	< 0.1 µM	< 1 µM	< 0.1 µM	< 10 µM	–	–	–
Nc1nc2cc(-c3ccc4ncc(N5CC(N6CCN(CCO)CC6)C5)cc4n3)ccc2o1 [Compound 65]	< 1 µM	< 1 µM	< 0.1 µM	< 10 µM	–	–	–
C[C@@H]1COCCN1C1CN(c2cnc3ccc(-c4ccc5oc(N)nc5c4)nc3c2)C1 [Compound 66]	< 0.1 µM	< 1 µM	< 0.1 µM	< 10 µM	–	–	–
Nc1nc2cc(-c3ccc4ncc(N5CC(N6C7CCC6COC7)C5)cc4n3)ccc2o1 [Compound 67]	< 1 µM	–	< 0.1 µM	> 10 µM	–	< 10 µM	–
C[C@H]1COCCN1C1CN(c2cnc3ccc(-c4ccc5oc(N)nc5c4)nc3c2)C1 [Compound 68]	< 10 µM	> 10 µM	< 0.1 µM	> 10 µM	–	–	–
Nc1nc2cc(-c3ccc4ncc(N5CC(N6CCN(C7CC7)CC6)C5)nc4n3)ccc2o1 [Compound 69]	< 10 µM	< 10 µM	< 0.1 µM	< 10 µM	–	–	–
Nc1nc2cc(-c3ccc4ncc(N5CC(N6CCN(C7CC7)CC6)C5)cc4n3)ccc2o1 [Compound 70]	< 1 µM	< 10 µM	< 0.1 µM	< 10 µM	–	–	–
CN1CCN(C2CN(c3cnc4ccc(-c5ccc6oc(N)nc6c5)nc4n3)C2)CC1 [Compound 71]	> 10 µM	< 1 µM	< 0.1 µM	< 10 µM	–	–	–
Nc1nc2cc(-c3cnc4ccc(N5CCOCC5)nc4c3)ccc2o1 [Compound 73, 5-(6-morpholino-1,5-naphthyridin-3-yl)benzo[d]oxazol-2-amine]	< 10 µM	> 10 µM	< 10 µM	> 10 µM	–	–	–
CN1CCN(C2CN(c3cnc4ccc(-c5ccc6oc(N)nc6c5)nc4c3)C2)CC1 [Compound 74]	< 1 µM	< 1 µM	< 0.1 µM	< 1 µM	–	–	–
CCN1CCN(C2CN(c3cnc4ccc(-c5ccc6oc(N)nc6c5)nc4c3)C2)CC1 [Compound 75]	< 10 µM	< 1 µM	< 0.1 µM	< 1 µM	–	–	–
CCN1CCN(C2CN(c3cnc4ccc(-c5ccc6oc(N)nc6c5)nc4n3)C2)CC1 [Compound 76]	< 10 µM	< 10 µM	< 0.1 µM	< 10 µM	–	–	–
CC(C)N1CCN(C2CN(c3cnc4ccc(-c5ccc6oc(N)nc6c5)nc4n3)C2)CC1 [Compound 77]	> 10 µM	> 10 µM	< 10 µM	> 10 µM	–	–	–
CN1CC2CN(c3cnc4ccc(-c5ccc6oc(N)nc6c5)nc4n3)CC2C1 (centres unmarked) [Compound 78]	< 10 µM	< 1 µM	< 0.1 µM	< 1 µM	> 10 µM	–	–
CN1CC2CN(c3cnc4ccc(-c5ccc6oc(N)nc6c5)nc4c3)CC2C1 (centres unmarked) [Compound 79]	< 1 µM	< 1 µM	< 0.1 µM	< 1 µM	> 10 µM	–	–
CN1CCN(c2ccc3ncc(-c4ccc5oc(N)nc5c4)cc3n2)CC1 [Compound 80]	> 10 µM	> 10 µM	< 10 µM	< 10 µM	–	–	–
Nc1nc2cc(-c3cnc4ccc(N5C6CCC5COC6)nc4c3)ccc2o1 [Compound 81]	< 10 µM	> 10 µM	–	> 10 µM	–	–	< 10 µM
CC(C)(N)C(=O)N1CCN(c2ccc3ncc(-c4ccc5oc(N)nc5c4)cc3n2)CC1 [Compound 82]	< 10 µM	> 10 µM	< 10 µM	> 10 µM	–	–	–
CN1CCN(C2CN(c3cnc4ccc(-c5ccc6oc(N)nc6c5)nc4c3)C2)CC1(C)C [Compound 83]	< 1 µM	< 0.1 µM	< 0.1 µM	< 1 µM	–	–	–
CN1CCN(C2CN(c3ccc4ncc(-c5ccc6oc(N)nc6c5)cc4n3)C2)CC1 [Compound 84]	> 10 µM	> 10 µM	< 10 µM	> 10 µM	–	–	–
CC(C)N1CCN(C2CN(c3cnc4ccc(-c5ccc6nc(N)[nH]c6c5)nc4c3)C2)CC1 [Compound 85]	> 10 µM	> 10 µM	< 0.1 µM	> 10 µM	–	–	–
C[C@@H]1CN(C2CN(c3cnc4ccc(-c5ccc6nc(N)[nH]c6c5)nc4c3)C2)CCN1C [Compound 86]	> 10 µM	> 10 µM	< 0.1 µM	> 10 µM	–	–	–
CCN1CCN(C2CN(c3cnc4ccc(-c5ccc6nc(N)[nH]c6c5)nc4c3)C2)CC1 [Compound 87]	> 10 µM	> 10 µM	< 0.1 µM	> 10 µM	–	–	–
CN1CCN(C2CN(c3cnc4ccc(-c5ccc6nc(N)[nH]c6c5)nc4c3)C2)CC1 [Compound 88]	> 10 µM	> 10 µM	< 0.1 µM	> 10 µM	–	–	–
C[C@H]1CN(C2CN(c3cnc4ccc(-c5ccc6nc(N)[nH]c6c5)nc4c3)C2)CCN1C [Compound 89]	> 10 µM	> 10 µM	< 0.1 µM	> 10 µM	–	–	–
